Measured values from patent US20210330611A1, “THERAPY FOR NEUROLOGICAL DISEASES/DISORDERS” (priority 2020, published 2021).
Where a name gives a salt, the structure may show the parent alone. Read-outs that look alike come from different tables or passages of the source.

Columns and labels:
[1] = tested on: fibrin- and LPS-induced microglia activation; assay: cells; assay type: cell-based, rat; details: classification by fibrin and LPS inhibition, HTS at 10 μM
[2] = tested on: LPS-induced microglia activation; assay: Image-based assay of LPS-induced microglia activation (HTS and dose response); assay type: cell-based, rat; details: primary microglia HTS, LPS stimulation, compounds at 10 μM; for inhibition at 10 µM: Rattus norvegicus, Microglia, read-out: LPS % inhibition
[3] = tested on: fibrin-induced microglia activation; assay: Image-based assay of fibrin-induced microglia activation (HTS and dose response); assay type: cell-based, rat; details: primary microglia HTS, fibrin stimulation, compounds at 10 μM; for inhibition at 10 µM: Rattus norvegicus, Microglia, read-out: Fibrin % inhibition
primary rat microglia [4] = assay: Cell toxicity (dead cells, size <150 μm2) in coated fibrin (cFib) assay; details: primary microglia HTS, fibrin assay, dead cells (size <150 μm2), compounds at 10 μM;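 note: share of dead cells sized under 150 µm2 at 10 µM in fibrin-stimulated microglia HTS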
primary rat microglia [5] = tested on: primary rat microglia

| Compound | Quadrant (FIG. 5b) [1] | inhibition at 10 µM [2] [%] | inhibition at 10 µM [3] [%] | Fibrin % cell toxicity (primary rat microglia [4]) [%] | LPS % cell toxicity (primary rat microglia [5]; rat) [%] | LPS % inhibition [2] [%] | Fibrin % inhibition [3] [%] | LPS % cell toxicity (primary rat microglia [5]) [%] | LPS % inhibition ([2]; 10 µM) [%] | Fibrin % inhibition ([3]; 10 µM) [%] |
| --- | --- | --- | --- | --- | --- | --- | --- | --- | --- | --- |
| C=CCOC(Cn1ccnc1)c1ccc(Cl)cc1Cl (stereo not shown) [Enilconazole] | Q4 | 15 | 24 | 1 | 1 | – | – | – | – | – |
| O=C(NCCCN1CCOCC1)c1ccc(Cl)cc1 [Eprobemide] | Q4 | 21 | -24 | 0 | 0 | – | – | – | – | – |
| O=S(=O)([O-])CCCS(=O)(=O)[O-].[Na+].[Na+] [Eprodisate Disodium] | Q4 | – | – | 1 | – | 12 | −3 | 0 | – | – |
| CCCCc1ncc(/C=C(\Cc2cccs2)C(=O)O)n1Cc1ccc(C(=O)O)cc1 [Eprosartan] | Q4 | -8 | -29 | 1 | 0 | – | – | – | – | – |
| C[C@]12CC[C@H]3C(=CCc4cc(O)ccc43)[C@@H]1CCC2=O [Equilin] | Q4 | 15 | 1 | 0 | 0 | – | – | – | – | – |
| O=C(O)CSCC(=O)NC1CCSC1=O (stereo not shown) [Erdosteine] | Q4 | 13 | 2 | 1 | 0 | – | – | – | – | – |
| C[C@@H](CO)NC(=O)[C@@H]1C=C2c3cccc4[nH]cc(c34)C[C@H]2N(C)C1 [Ergonovine Maleate] | Q4 | – | – | 1 | 0 | – | – | – | 7 | 9 |
| C[C@@H](CO)NC(=O)[C@@H]1C=C2c3cccc4[nH]cc(c34)C[C@H]2N(C)C1 [Ergonovine] | Q4 | – | – | 1 | 0 | – | – | – | −10 | −23 |
| CN1C[C@H](C(=O)N[C@]2(C)O[C@@]3(O)[C@@H]4CCCN4C(=O)[C@H](Cc4ccccc4)N3C2=O)C=C2c3cccc4[nH]cc(c34)C[C@H]21 [Ergotamine Tartrate] | Q4 | – | – | 0 | 1 | – | – | – | 22 | 31 |
| CN1C[C@H](C(=O)N[C@]2(C)O[C@@]3(O)[C@@H]4CCCN4C(=O)[C@H](Cc4ccccc4)N3C2=O)C=C2c3cccc4[nH]cc(c34)C[C@H]21 [Ergotamine] | Q4 | – | – | 1 | 0 | – | – | – | −4 | 6 |
| OC[C@@H](O)[C@@H](O)CO [Erythritol] | Q4 | 10 | -25 | 1 | 0 | – | – | – | – | – |
| CCOC(=O)CCC(=O)O[C@H]1[C@H](O[C@@H]2[C@@H](C)[C@H](O[C@H]3C[C@@](C)(OC)[C@@H](O)[C@H](C)O3)[C@@H](C)C(=O)O[C@H](CC)[C@@](C)(O)[C@H](O)[C@@H](C)C(=O)[C@H](C)C[C@@]2(C)O)O[C@H](C)C[C@@H]1N(C)C [Erythromycin Ethylsuccinate] | Q4 | 14 | -14 | 0 | 0 | – | – | – | – | – |
| CCC(=O)O[C@H]1[C@H](O[C@@H]2[C@@H](C)[C@H](O[C@H]3C[C@@](C)(OC)[C@@H](O)[C@H](C)O3)[C@@H](C)C(=O)O[C@H](CC)[C@@](C)(O)[C@H](O)[C@@H](C)C(=O)[C@H](C)C[C@@]2(C)O)O[C@H](C)C[C@@H]1N(C)C [Erythromycin Propionate] | Q4 | 27 | 23 | 1 | 0 | – | – | – | – | – |
| O=C1OC2(c3ccccc31)c1cc(I)c(O)c(I)c1Oc1c2cc(I)c(O)c1I [Erythrosine Sodium] | Q4 | 0 | 1 | 1 | 0 | – | – | – | – | – |
| COC(=O)CCc1ccc(OCC(O)CNC(C)C)cc1 (stereo not shown) [Esmolol, Esmolol Hydrochloride] | Q4 | – | – | 1 | – | 2 | −15 | 0 | – | – |
| C[C@]12CC[C@@H]3c4ccc(OC(=O)c5ccccc5)cc4CC[C@H]3[C@@H]1CC[C@@H]2O [Estradiol Benzoate] | Q4 | 8 | -3 | 1 | 0 | – | – | – | – | – |
| C[C@]12CC[C@@H]3c4ccc(O)cc4CC[C@H]3[C@@H]1CC[C@@H]2OC(=O)CCC1CCCC1 [Estradiol Cypionate] | Q4 | 8 | -25 | 0 | 0 | – | – | – | – | – |
| CCC(=O)Oc1ccc2c(c1)CC[C@@H]1[C@@H]2CC[C@]2(C)[C@@H](OC(=O)CC)CC[C@@H]12 [Estradiol Dipropionate] | Q4 | 17 | 0 | 1 | 1 | – | – | – | – | – |

| Compound | Quadrant (FIG. 5b) [1] | inhibition at 10 µM [2] [%] | inhibition at 10 µM [3] [%] | Fibrin % cell toxicity (primary rat microglia [4]) [%] | LPS % cell toxicity (primary rat microglia [5]; rat) [%] | LPS % inhibition [2] [%] | Fibrin % inhibition [3] [%] | LPS % cell toxicity (primary rat microglia [5]) [%] | LPS % inhibition ([2]; 10 µM) [%] | Fibrin % inhibition ([3]; 10 µM) [%] |
| --- | --- | --- | --- | --- | --- | --- | --- | --- | --- | --- |
| CCCCC(=O)O[C@H]1CC[C@H]2[C@@H]3CCc4cc(O)ccc4[C@H]3CC[C@]12C [Estradiol Valerate] | Q4 | 16 | -8 | 1 | 1 | – | – | – | – | – |
| C[C@]12CC[C@@H]3c4ccc(OC(=O)N(CCCl)CCCl)cc4CC[C@H]3[C@@H]1CC[C@@H]2O [Estramustine] | Q4 | 16 | 8 | 1 | 1 | – | – | – | – | – |
| C[C@]12CC[C@@H]3c4ccc(OS(=O)(=O)O)cc4CC[C@H]3[C@@H]1CCC2=O [Estropipate] | Q4 | 10 | 10 | 1 | 0 | – | – | – | – | – |
| CN1CCN(C(=O)O[C@H]2c3nccnc3C(=O)N2c2ccc(Cl)cn2)CC1 [Eszopiclone] | Q4 | 17 | 1 | 0 | 0 | – | – | – | – | – |
| CCN(CC)C(=O)c1ccc(O)c(OC)c1 [Etamivan] | Q4 | 16 | -16 | 1 | 0 | – | – | – | – | – |
| CCOc1ccc2nc3cc(N)ccc3c(N)c2c1 [Ethacridine Lactate] | Q4 | -8 | -64 | 1 | 0 | – | – | – | – | – |
| CCOc1ccc(Cc2nccc3cc(OCC)c(OCC)cc23)cc1OCC [Ethaverine Hydrochloride] | Q4 | 24 | 41 | 1 | 1 | – | – | – | – | – |
| CCOc1ccccc1C(N)=O [Ethenzamide] | Q4 | 5 | -15 | 1 | 0 | – | – | – | – | – |
| CCN(CC)C(C)CN1c2ccccc2Sc2ccccc21 (stereo not shown) [Ethopropazine] | Q4 | 30 | 31 | 1 | 0 | – | – | – | – | – |
| CCC1(C)CC(=O)NC1=O (stereo not shown) [Ethosuximide] | Q4 | 19 | -9 | 0 | 0 | – | – | – | – | – |
| CCOc1ccc2nc(S(N)(=O)=O)sc2c1 [Ethoxzolamide] | Q4 | 16 | 29 | 1 | 1 | – | – | – | – | – |
| CCOc1cc(C=O)ccc1O [Ethyl Vanillin] | Q4 | 18 | -15 | 0 | 0 | – | – | – | – | – |
| CCOC(N)=O [Ethyl carbamate] | Q4 | 27 | 44 | 1 | 0 | – | – | – | – | – |
| CCOC(=O)c1ccc(O)cc1 [Ethylparaben] | Q4 | 8 | -5 | 1 | 1 | – | – | – | – | – |
| CC(O)(P(=O)(O)O)P(=O)(O)O [Etidronic acid] | Q4 | 18 | -16 | 1 | 0 | – | – | – | – | – |
| Cc1ccc(-c2ncc(Cl)cc2-c2ccc(S(C)(=O)=O)cc2)cn1 [Etoricoxib] | Q4 | -4 | 15 | 1 | 0 | – | – | – | – | – |
| CCOC(=O)/C=C(C)/C=C/C=C(C)/C=C/c1c(C)cc(OC)c(C)c1C [Etretinate] | Q4 | 9 | -19 | 1 | 0 | – | – | – | – | – |
